Experiments:
Type in all cases: cell-based
RSV B Washington strain = test: RSV B induced CPE in HEp2 cells; details: human respiratory syncytial virus; for IC50: HEp-2, 144 h, 6 days; for inhibition at 1 µg/mL: HEp-2, at 1 μg/mL; for inhibition at 0.1 µg/mL: HEp-2, at 0.1 μg/mL
Description: (§1) HEp2 cells were seeded (10^3/well/50 μL) in 384-well plates (Catalogue number 353962, BD Falcon, Oxford, UK) in 5% FBS-DMEM (containing 2 mM L-glutamine and 1 mM sodium pyruvate) one day before infection. […] Simultaneously, test compounds (0.5 μL DMSO solution) were added to 100 μL of HEp2 cell culture with virus solution to provide a final DMSO solution of 0.5%. […] Sigma-Aldrich, Dorset, UK) was added to each well and the plate incubated for a further 6 hr (37° C./5% CO2). The fluorescence of each well [545 nm (excitation)/590 nm (emission)] was determined using a multi-scanner (Clariostar: BMG, Buckinghamshire, UK). The percentage inhibition for each well was calculated and the IC50, IC75 and IC90 values were calculated from the concentration-response curve generated for each test compound.

RSV A2 strain = test: RSV A2 induced CPE in HEp2 cells; details: human respiratory syncytial virus; for IC50: HEp-2, 120 h, 5 days; for inhibition at 0.01 µg/mL: HEp-2, at 0.01 μg/mL
Description: as §1

[1] = Cell viability: resazurin assay; details: human, HEp2 cells
Description: HEp2 cells were seeded in 384-well plates (10^3/well/50 μL; BD Falcon Ref 353962) in FBS DMEM (5%, containing 2 mM L-glutamine and 1 mM sodium pyruvate) one day before experimentation. Serum-free DMEM (50 μL) was added to test wells, while for control wells the media was removed and sterile water (100 μL) added. Test compounds (0.5 μL DMSO solution) were added to give a final DMSO concentration of 0.5%. HEp2 cells were incubated with each test compound for 5 days (37° C./5% CO2 in 2.5% FBS) and then resazurin stock solution (5 μL; 0.03%) was added to each well and the plate incubated for a further 6 hr (37° C./5% CO2). The fluorescence of each well at 545 nm (excitation) and 590 nm (emission) was determined using a multi-scanner (Clariostar: BMG Labtech). The percentage loss of cell viability was calculated for each well relative to vehicle (0.5% DMSO) treatment. Note that any apparent increase in cell viability associated with test compound treatment relative to vehicle is consequently tabulated as a negative percentage. Where appropriate, a CC50 value was calculated from the concentration-response curve generated from the concentration-response curve for each test compound.

Structure (SMILES)	IC50 (RSV B Washington strain) [nM]	inhibition at 1 µg/mL (RSV B Washington strain) [%]	IC50 (RSV A2 strain) [nM]	inhibition at 0.01 µg/mL (RSV A2 strain) [%]	CC50 at 5 days [1] [nM]	inhibition at 0.1 µg/mL (RSV B Washington strain) [%]
Cc1cnc(N2CCC3(CC2)COC3)c(C(=O)Nc2ccc(C(=O)N3CCc4cc(C(=O)Nc5c(F)cccc5F)sc4-c4sccc43)cc2)c1 [Example 30, N-(2,6-difluorophenyl)-4-(4-(5-methyl-2-(2-oxa-7-azaspiro[3.5]nonan-7-yl)nicotinamido)benzoyl)-5,6-dihydro-4H-dithieno[3,2-b:2′,3′-d]azepine-8-carboxamide]	130	100	0.42	100	> 13800	
O=C(Nc1c(F)cccc1F)c1cc2c(s1)-c1sccc1N(C(=O)c1ccc(NC(=O)c3cccnc3N3CCC4(CC3)COC4)cc1)CC2 [Example 29, 4-(4-(2-(2-oxa-7-azaspiro[3.5]nonan-7-yl)nicotinamido)benzoyl)-N-(2,6-difluorophenyl)-5,6-dihydro-4H-dithieno [3,2-b:2′,3′-d]azepine-8-carboxamide]	490	51	3.6	100	> 14000	
O=C(Nc1c(F)cccc1F)c1cc2c(s1)-c1sccc1N(C(=O)c1ccc(NC(=O)c3cc4sccc4nc3N3CC4(CCOCC4)C3)cc1F)CC2 [Example 28, 4-(4-(5-(7-oxa-2-azaspiro[3.5]nonan-2-yl)thieno[3,2-b]pyridine-6-carboxamido)-2-fluorobenzoyl)-N-(2,6-difluorophenyl)-5,6-dihydro-4H-dithieno[3,2-b:2′,3′-d] azepine-8-carboxamide]	15		0.48	89	> 12700	92
O=C(Nc1c(F)cccc1F)c1cc2c(s1)-c1sccc1N(C(=O)c1ccc(NC(=O)c3cc4c(nc3N3CC5(CCOCC5)C3)CCOC4)cc1)CC2 [Example 25, N-(4-(8-((2,6-difluorophenyl)carbamoyl)-5,6-dihydro-4H-dithieno[3,2-b:2′,3′-d]azepine-4-carbonyl)phenyl)-2-(7-oxa-2-azaspiro[3.5]nonan-2-yl)-7,8-dihydro-5H-pyrano[4,3-b]pyridine-3-carboxamide]	10		0.18	100	> 13000	89
Cc1cnc(N2CC3(CCOCC3)C2)c(C(=O)Nc2ccc(C(=O)N3CCc4cc(C(=O)Nc5c(F)cccc5Cl)sc4-c4sccc43)c(F)c2)c1 [Example 19, N-(2-chloro-6-fluorophenyl)-4-(2-fluoro-4-(5-methyl-2-(7-oxa-2-azaspiro[3.5]nonan-2-yl)nicotinamido)benzoyl)-5,6-dihydro-4H-dithieno[3,2-b:2′,3′-d]azepine-8-carboxamide]	29	86	0.18	93	> 13200	
O=C(Nc1c(F)cccc1F)c1cc2c(s1)-c1sccc1N(C(=O)c1ccc(NC(=O)c3cc4ccccc4nc3N3CC4(CCOCC4)C3)cc1)CC2 [Example 27, 4-(4-(2-(7-oxa-2-azaspiro[3.5]nonan-2-yl)quinoline-3-carboxamido)benzoyl)-N-(2,6-difluorophenyl)-5,6-dihydro-4H-dithieno[3,2-b:2′,3′-d]azepine-8-carboxamide]	32	93	0.63	94	> 13100	
COc1cccc(F)c1NC(=O)c1cc2c(s1)-c1sccc1N(C(=O)c1ccc(NC(=O)c3cc(C)cnc3N3CC4(CCOCC4)C3)cc1)CC2 [Example 16, N-(2-fluoro-6-methoxyphenyl)-4-(4-(5-methyl-2-(7-oxa-2-azaspiro[3.5]nonan-2-yl)nicotinamido)benzoyl)-5,6-dihydro-4H-dithieno[3,2-b:2′,3′-d]azepine-8-carboxamide]	32		0.18	96	> 13600	100
O=C(Nc1c(F)cccc1F)c1cc2c(s1)-c1sccc1N(C(=O)c1ccc(NC(=O)c3cccnc3N3CC4(COC4)C3)cc1)CC2 [Example 31, 4-(4-(2-(2-oxa-6-azaspiro[3.3]heptan-6-yl)nicotin-amido)benzoyl)-N-(2,6-difluorophenyl)-5,6-dihydro-4H-dithieno[3,2-b:2′,3′-d]azepine-8-carboxamide]	1050	57	10.8	62	> 14600	
Cc1cnc(N2CC3(CCOCC3)C2)c(C(=O)Nc2ccc(C(=O)N3CCc4cc(C(=O)Nc5c(Cl)cccc5Cl)sc4-c4sccc43)cc2)c1 [Example 13, N-(2,6-dichlorophenyl)-4-(4-(5-methyl-2-(7-oxa-2-azaspiro [3.5]nonan-2-yl)nicotinamido)benzoyl)-5,6-dihydro-4H-dithieno[3,2-b:2′,3′-d]azepine-8-carboxamide]	1.2	80	0.14	77	> 13200	
O=C(Nc1c(F)cccc1F)c1cc2c(s1)-c1sccc1N(C(=O)c1ccc(NC(=O)c3cccnc3N3CC4(CCOCC4)C3)cc1F)CC2 [Example 7, 4-(4-(2-(7-oxa-2-azaspiro[3.5]nonan-2-yl)nicotinamido)-2-fluorobenzoyl)-N-(2,6-difluorophenyl)-5,6-dihydro-4H-dithieno[3,2-b:2′,3′-d]azepine-8-carboxamide]	97	82	2.6	87	> 13700	
Cc1cc(C(=O)Nc2ccc(C(=O)N3CCc4cc(C(=O)Nc5c(F)cccc5F)sc4-c4sccc43)c(F)c2)c(N2CC3(CCOCC3)C2)nc1C [Example 23, N-(2,6-difluorophenyl)-4-(4-(5,6-dimethyl-2-(7-oxa-2-azaspiro[3.5]nonan-2-yl)nicotinamido)-2-fluorobenzoyl)-5,6-dihydro-4H-dithieno[3,2-b:2′,3′-d]azepine-8-carboxamide]	70	96	0.67	96	> 13200	
O=C(Nc1c(F)cccc1F)c1cc2c(s1)-c1sccc1N(C(=O)c1ccc(NC(=O)c3cc4c(nc3N3CC5(CCOCC5)C3)CCC4)cc1)CC2 [Example 2, 4-(4-(2-(7-Oxa-2-azaspiro[3.5]nonan-2-yl)-6,7-dihydro-5H-cyclopenta[b]pyridine-3-carboxamido)benzoyl)-N-(2,6-difluorophenyl)-5,6-dihydro-4H-dithieno[3,2-b: 2′,3′-d]azepine-8-carboxamide]	8.7		0.37	97	> 13300	86
Cc1cnc(N2CC3(COC3)C2)c(C(=O)Nc2ccc(C(=O)N3CCc4cc(C(=O)Nc5c(F)cccc5F)sc4-c4sccc43)cc2)c1 [Example 32, N-(2,6-difluorophenyl)-4-(4-(5-methyl-2-(2-oxa-6-azaspiro[3.3]heptan-6-yl)nicotinamido)benzoyl)-5,6-dihydro-4H-dithieno[3,2-b:2′,3′-d]azepine-8-carboxamide]	602	90	0.59	100	> 14300	
